Assay results as given in patent US7098241B2, “Thiophene hydroxamic acid derivatives” (Hoffmann-La Roche Inc., priority 2002, dated 2006).

How the values were obtained:
[1] = tested on: PC-3 prostate carcinoma cells xenograft; test: Antitumor activity in a PC-3 xenograft model; format: in vivo, NMRI nude mice; conditions: 15 days of treatment over 19 days, vs vehicle group
Method: Determination of Antitumor Activity in a PC-3 Xenograft Model
PC-3 prostate carcinoma cells were originally obtained from the NCI collection and were deposited after expansion in the Roche cell bank Penzberg. Tumor cell line was routinely cultured in RPMI 1640 Medium containing 10% FBS and 2 mM L-glutamine at 37° C. in a water-saturated atmosphere at 5% CO2. Culture passage was performed with trypsin/EDTA 1× (Roche Diagnostics) splitting twice a week. Cell passage 3 was used in the present study.
At the day of cell injection, cells were harvested from culture flasks (Greiner T 75), transferred into 50 ml culture medium, washed once and resuspended in PBS. After an additional washing with PBS, the final cell titer was measured with a Neubauer-Chamber. The tumor cell suspension (PBS) was vortexed carefully (to reduce cell aggregation) and kept on ice. The cell suspension was filled into a 1.0 ml syringe. To generate primary tumors, 2×10^6 PC-3 tumor cells in a volume of 100 μl PBS were injected subcutaneously into the right flank of each mouse (NMRI nude mice). After s.c. inoculation of tumor cells, measurable tumors developed in all animals. Mice were staged and randomized on day 10 according to the primary tumor dimensions. 15 days daily oral dosing was carried out using the compound of example 1 and compound 3 of WO 93/07148, WO 95/31977, U.S. Pat. No. 5,369,108 as test article. 90 male NMRI nude mice were divided into 6 study groups. Each group consisted of 15 male animals. The individual groups were given the test article, formulated as microsuspensions in 7.5% modified gelatin with 0.22% NaCl solution, once daily by oral route over 19 days (3 cycles of 5 days treatment and a 2-day drug free period each). The application volume was 10 ml/kg. The oral doses chosen were 25, 50, 100, and 200 mg/kg of example 1 and 200 mg/kg of compound 3 of patent '108. The study was terminated on day 28 after tumor cell injection when the vehicle group reached the termination criteria.

[2] = tested on: acetylated histone H3 in HT29 human colon carcinoma xenografts; test: Acetylation levels of histone H3 in HT29 tumor bearing mice; format: in vivo, NMRI nude mice; conditions: for acetylated H3, BLU/1 μg histone protein: HT29 xenograft, mean; for acetylated H3, BLU % (BLU percent versus vehicle control): vehicle = 100
Method: Determination of Acetylation Levels of Histone H3 in Tumor Bearing Mice
The HT-29 cell line is derived from a human colon adenocarcinoma and was obtained from ATCC and kept in an in house working cell bank for pharmacological use. Cells were cultured in RPMI1640/2 mM L-Glutamin medium supplemented with 10% heat inactivated FCS. For inoculation HT29 tumor cells are removed (Trypsin-EDTA, 50 U/mg) from culture flasks and transferred into culture medium (RPMI 1640, 10% heat inactivated FCS), washed and resuspended in sterile PBS to achieve a final cell concentration of 5×10^6/100 μl. Cell suspension was carefully mixed by regular shaking to avoid cell aggregation and filled into a 1.0 ml graded syringe. After s.c. inoculation of HT29 human colon carcinoma cells (5×10^6/100 μl) in the right upper quarter of ventral breast region of NMRI nude mice, animals were inspected 2–3 times per week until xenografts reached a volume of roughly 1000 mm^3 or more, sufficient for analysis of histone acetylation. After single i.p. application of 400 mg/kg of the compound of example 1, formulated as microsuspension in 7.5% modified gelatin with 0.22% NaCl solution, the respective group of animals was sacrificed 3, 6, 12, and 24 h after dosing. Tumors were excised for analysis of acetylated histones (H3). An aliquot of tumors (ca. 200 mg) was analyzed for acetylated H3. Histones were extracted from xenografts by standardized methods (Richon, V. M., et al., PNAS 97 (2000) 10014–10019; Yoshida, M., et al., J. Biol. Chem. 265 (1990) 17174–17179), separated and acetylated H3 identified by Slot Blot and Immuno Blot techniques (SB-IB, Bio-Rad Laboratories GmbH, Munich, Germany) using anti-acetyled-H3 Pabs (UpState Biotechnology, Cat. #06-599). Histone protein was determined (Pierce Kit) and adjusted to 3 mg/ml to apply a standardized amount of 1 μg histone protein for H3 analysis in SB-IB. Quantification of acetylated H3 was performed by ECL (Enhanced Chemo Luminescence, Amersham Pharmacia, Hybond™ ECL™ Nitrocellulose membrane) measuring bioluminescence with the Lumi-Imager instrument (Roche Diagnostics). Data are expressed either as BLU/μg histone protein (BLU=Bio-Luminescence-Units), or as BLU percent versus vehicle control. After single administration of the compound of example 1, there was a marked and significant increase of acetylated H3 lasting for up to 24 h compared to the vehicle groups. The maximum acetylation was attained 6 h after dosing. A tabulated summary of the mean values and percentual changes are depicted below.

[3] = 3 h after single i.p. 400 mg/kg
[4] = 6 h after single i.p. 400 mg/kg
[5] = 12 h after single i.p. 400 mg/kg
[6] = 24 h after single i.p. 400 mg/kg

C[C@@H](NC(=O)c1ccc(C(=O)NO)s1)c1ccccc1 [Example 1, (R)-thiophene-2,5-dicarboxylic acid 2-hydroxyamide 5-[(1-phenyl-ethyl)-amide]]
tumor weight inhibition ([1]; 25 mg/kg oral once daily): 15% | tumor weight inhibition ([1]; 50 mg/kg oral once daily): 36% | tumor weight inhibition ([1]; 100 mg/kg oral once daily): 51% | tumor weight inhibition ([1]; 200 mg/kg oral once daily): 81% | acetylated H3, BLU/1 μg histone protein [2, 3]: 57824 BLU/1 μg | acetylated H3, BLU % (BLU percent versus vehicle control) [2, 3]: 466% | acetylated H3, BLU/1 μg histone protein [2, 4]: 98717 BLU/1 μg | acetylated H3, BLU % (BLU percent versus vehicle control) [2, 4]: 502% | acetylated H3, BLU/1 μg histone protein [2, 5]: 75378 BLU/1 μg | acetylated H3, BLU % (BLU percent versus vehicle control) [2, 5]: 447% | acetylated H3, BLU/1 μg histone protein [2, 6]: 40965 BLU/1 μg | acetylated H3, BLU % (BLU percent versus vehicle control) [2, 6]: 269% | duration of marked and significant increase of acetylated H3 compared to vehicle ([2]; single i.p. 400 mg/kg): up to 24 h | time of maximum acetylation after dosing ([2]; single i.p. 400 mg/kg): 6 h
